Consider four compounds from US20230165875A1, “METHYLTHIONINIUM COMPOUNDS FOR USE IN THE TREATMENT OF COVID-19” (priority 2020, published 2023).

Data set [1] in a line: Oxygen saturation and metHb in clinical trial patients after LMT dosing. In kind it is in vivo, human. As to the method: The present inventors have used data available for patients participating in clinical trials to determine whether LMT enhances oxygen saturation of blood. Data were available for 18 subjects with oxygen saturation <94% at baseline (lower limit of normal range is 95%). Oxygen saturation levels were compared pre-dose and after 4 hrs in the clinic following administration of a single doses of LMT at 4 mg and ˜100mg (mean of 75, 100, 125 mg; FIG. 8).
In order to understand this effect further the inventors investigated whether the low oxygen saturation in these patients is due to elevation in metHb levels. There was no difference in metHb levels at baseline between subjects with low SpO2 and those with SpO2 levels in the normal range.

Data set [2] concerns mitochondrial function. The conditions noted are these: in vitro and in vivo; cited from earlier work.
The conditions of data set [3]: AD patients; cited from earlier work.
A short description of data set [4]: Clinical safety / cardiotoxicity of LMTM. In kind it is in vivo, human. How it is done: Therefore, doses up to 250 mg/day could be given safely for treatment of COVID-19 patients.
For data set [5], the system named is SARS-CoV2. Kind of data set: Virucidal activity / neutralising viral toxicity in Vero-E6 cell assay in the dark (Cagno et al 2020 data). In kind it is cell-based.
Details of data set [6]: species or system rats. Conditions: rat, in vivo, po, 10 mg/kg. How it is done: A further whole body autoradiography study rats compared the distribution of LMT-associated radioactivity in brain, lung and heart following oral dosing at 10 mg/kg. […] The ratio specific for LMT in lung is therefore unknown. It is possible to relate plasma levels determined in a large clinical population (Schelter et al., 2019) to expected tissue levels of LMT at steady state across a wide dosing range of 8-250 mg/day. However, this depends critically on the tissue:plasma ratio for specifically affected tissues such a lung.

For data set [7], the system named is SARS-CoV-2. The conditions noted are these: Vero cells, 48 hrs; read-out: IC50, SARS-CoV-2 antiviral activity (viral replication); cited from earlier work.

For the compound `CN(C)c1ccc2c(c1)Sc1cc(N(C)C)ccc1N2.CS(=O)(=O)O.CS(=O)(=O)O` [LMTM, N,N,N′,N′-tetramethyl-10H-phenothiazine-3,7-diaminium bis(hydromethanesulfonate)], the metHb levels result in data set [1] (higher doses, over a period of time) is listed as “systematically increases metHb levels”. Also, in data set [1] (subjects with oxygen saturation <94% at baseline, 4 hours after single dose of LMT at 4 mg and ~100 mg), the “oxygen saturation of blood” value is “significantly increased oxygen saturation”. Also, in data set [2], the mitochondrial function result is “enhance mitochondrial function”. In addition, in data set [3], the “minimum effective dose (anti-dementia effects)” value is 8 mg/day and the “optimally effective dose (anti-dementia effects)” value is given as 16 mg/day. The safety across doses entry in data set [4] (8-250 mg/day, three Phase 3 trials in over 2,000 patients with dementia) is on record as “well established”. Further, in data set [4] (human, in vivo), the cardiotoxicity entry is “does not have the cardiotoxicity”.
Turning to `CN(C)c1ccc2c(c1)Sc1cc(N(C)C)ccc1N2` [LMT, hydromethylthionine], the “potency as SARS-CoV-2 antiviral relative to hydroxychloroquine and remdesivir” value in data set [5] (assuming comparability of the assays) is given as “approximately 23 fold”. Moreover, the “ratio of heart and lung to brain (LMT-associated radioactivity, total MT)” value in data set [6] was 2:1.
For orientation: IC50 means the midpoint of a concentration-inhibition curve. For the compound methylthionine [MT moiety], the IC50 in data set [5] (Vero cell assay, 20 hrs, calculated from Cagno et al. data) is 32 nM.
For `CCN(CCO)CCCC(C)Nc1ccnc2cc(Cl)ccc12` (centres unmarked) [hydroxychloroquine], the IC50 in data set [7] is 720 nM.
